US20210255193A1, “LYSINE REACTIVE PROBES AND USES THEREOF” (The Scripps Research Institute, priority 2017, published 2021)

Assays:
Assay in all cases: competitive isoTOP-ABPP
Assay type in all cases: binding
ADK Adenosine kinase = target: T1, ADK Adenosine kinase (Homo sapiens, UniProt P55263); parameters: key to isoTOP-ABPP reactivity ratio at lysine P55263_K88: R = MS1 peak area ratio, DMSO (heavy) / compound-treated (light); details: for isoTOP-ABPP reactivity ratio at lysine P55263_K88 / isoTOP-ABPP ratio (R) at liganded lysine P55263_K88: 50 uM, in vitro; for isoTOP-ABPP reactivity ratio at lysine P55263_K88: 231 sol; for isoTOP-ABPP ratio (R) at liganded lysine P55263_K88: sol, 231
T1 construct: isoTOP-ABPP experiments performed in cell lysates (in vitro); endogenous in cells; host or cells: soluble proteome of human cancer cell lines (MDA-MB-231, Ramos, Jurkat)
Method: (§1) In vitro covalent fragment treatment for isoTOP-ABPP. All compounds were made up as solutions in DMSO (100×) and were used at a final concentration of 50 μM for activated esters and 100 μM for guanidinylating agents. For each profiling sample, 0.5 ml of lysate was treated with 5 μl of the 100× compound stock solution or 5 μl of DMSO. Samples were treated with activated esters for
(§2) STP-alkyne labeling and click chemistry. For concentration-dependent reactivity measurements by isoTOP-ABPP, 0.5 ml proteome aliquots were treated at ambient temperature with 1 mM STP-alkyne 1 (5 μl of 100 mM stock in DMSO) and 0.1 mM STP alkyne 1 (5 μl of 10 mM stock in DMSO), respectively. For competitive isoTOP-ABPP, after in vitro fragment treatment (detailed above), the samples were labeled for 1 h at ambient temperature with 0.1 mM STP-alkyne 1 (5 μl of 10 mM stock in DMSO). Samples were conjugated by copper-mediated azide-alkyne cycloaddition (CuAAC) to either the light (1 mM STP-alkyne or fragment treated) or heavy (0.1 mM STP-alkyne or DMSO treated) TEV tags (10 μl of 5 mM stocks in DMSO, final concentration=100 μM) using tris(2-carboxyethyl)phosphine hydrochloride
(§3) R value calculation and processing. The ratios of light and heavy MS1 peaks for each unique peptide were quantified with a CIMAGE software using default parameters (3 MS1 acquisitions per peak and signal to noise threshold set to 2.5). For reactivity measurements by isoTOP-ABPP, the R value was calculated from the ratio of MS1 peak areas, comparing the 1 mM STP alkyne sample (light TEV tag) with the 0.1 mM STP alkyne sample (heavy TEV tag). For competitive isoTOP-ABPP, the R value was calculated from the ratio of MS1 peak areas, comparing the DMSO treated sample (heavy TEV tag) with the compound treated sample (light TEV tag). […] Ratios for unique peptide entries are calculated for each experiment; overlapping peptides with the same modified lysine (for example, different charge states, MudPIT chromatographic steps or tryptic termini) are grouped together and the median ratio is reported as the final ratio (R). The peptide ratios reported by CIMAGE were further filtered to ensure the removal or correction of low-quality ratios in each individual data set. The quality filters applied were the following: removal of half tryptic peptides; for ratios with high standard deviations from the median (90% of the median or above) the lowest ratio was taken instead of the median; removal of peptides with R=20 and only a single MS2 event triggered during the elution of the parent ion; manual annotation of all the peptides with ratios of 20, removing any peptides with low quality elution profiles that remained after the previous curation steps (only done for competitive isoTOP-ABPP).
(§4) Cross-data processing for fragment screening. For compound treated samples, biological replicates of the same condition were averaged, if the standard deviation was below 60% of the mean; otherwise, for lysines with at least one R value <4 for a particular compound, the lowest value of the ratio set was taken. For lysines, where all R values for a particular compound were ≥4, the average was reported. For peptides containing several possible modified lysines, the lysine with the highest number of quantification events was used for analysis and the remaining, redundant peptides were reported as alternative modification sites. Peptides included in the aggregate dataset (those used for further bioinformatics and statistical analyses) were required to have been quantified in 2 experiments for competitive isoTOP-ABPP. Lysines were categorized as liganded, if they had at least one ratio R≥4 (hit fragments). For liganded lysines with R=20 for all liganding events, lysines were required to have been quantified with R=20 in two separate experiments and were further required to have been quantified with R<20 in one additional experiment.

[1] = target: T2, PSME3 Proteasome activator complex subunit 3 (Homo sapiens, UniProt P61289); parameters: key to isoTOP-ABPP reactivity ratio at lysine P61289_K237: R = MS1 peak area ratio, DMSO (heavy) / compound-treated (light); key to isoTOP-ABPP reactivity ratio at lysine P61289_K12: R = MS1 peak area ratio, DMSO (heavy) / compound-treated (light); capped at 20; details: for isoTOP-ABPP reactivity ratio at lysine P61289_K237 / isoTOP-ABPP ratio (R) at liganded lysine P61289_K12 / isoTOP-ABPP ratio (R) at liganded lysine P61289_K237 / isoTOP-ABPP reactivity ratio at lysine P61289_K12: 50 uM, in vitro; for isoTOP-ABPP reactivity ratio at lysine P61289_K237 / isoTOP-ABPP reactivity ratio at lysine P61289_K12: 231 sol; for isoTOP-ABPP ratio (R) at liganded lysine P61289_K12 / isoTOP-ABPP ratio (R) at liganded lysine P61289_K237: sol, 231
T2 construct: isoTOP-ABPP experiments performed in cell lysates (in vitro); endogenous in cells; host or cells: soluble proteome of human cancer cell lines (MDA-MB-231, Ramos, Jurkat)
Method: as §1, §2, §3, §4

[2] = target: T3, ACBD3 Golgi resident protein GCP60 (Homo sapiens, UniProt Q9H3P7); parameters: key to isoTOP-ABPP reactivity ratio at lysine Q9H3P7_K117: R = MS1 peak area ratio, DMSO (heavy) / compound-treated (light); details: for isoTOP-ABPP reactivity ratio at lysine Q9H3P7_K117 / isoTOP-ABPP ratio (R) at liganded lysine Q9H3P7_K117: 50 uM, in vitro; for isoTOP-ABPP reactivity ratio at lysine Q9H3P7_K117: 231 sol; for isoTOP-ABPP ratio (R) at liganded lysine Q9H3P7_K117: sol, 231
T3 construct: isoTOP-ABPP experiments performed in cell lysates (in vitro); endogenous in cells; host or cells: soluble proteome of human cancer cell lines (MDA-MB-231; Ramos and Jurkat also prepared)
T3 sequence (Q9H3P7 1-528): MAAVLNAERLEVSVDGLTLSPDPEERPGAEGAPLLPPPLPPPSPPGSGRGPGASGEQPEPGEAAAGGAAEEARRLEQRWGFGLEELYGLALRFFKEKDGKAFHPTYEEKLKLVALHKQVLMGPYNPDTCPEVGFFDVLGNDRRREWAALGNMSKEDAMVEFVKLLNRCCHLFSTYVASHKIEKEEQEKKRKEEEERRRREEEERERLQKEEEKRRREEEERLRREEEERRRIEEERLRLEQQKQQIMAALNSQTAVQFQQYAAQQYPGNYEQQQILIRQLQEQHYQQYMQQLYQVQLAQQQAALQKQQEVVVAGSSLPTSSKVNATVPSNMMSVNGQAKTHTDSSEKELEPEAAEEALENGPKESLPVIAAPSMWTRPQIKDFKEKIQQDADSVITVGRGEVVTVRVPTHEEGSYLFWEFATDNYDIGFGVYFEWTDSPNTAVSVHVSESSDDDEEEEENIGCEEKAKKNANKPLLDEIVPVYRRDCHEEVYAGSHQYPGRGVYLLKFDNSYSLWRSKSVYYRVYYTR
Method: as §1, §2, §3, §4

[3] = target: T4, ABHD10 Abhydrolase domain-containing protein 10, mitochondrial (Homo sapiens, UniProt Q9NUJ1); parameters: key to isoTOP-ABPP reactivity ratio at lysine Q9NUJ1_K185: R = MS1 peak area ratio, DMSO (heavy) / compound-treated (light); capped at 20; details: for isoTOP-ABPP reactivity ratio at lysine Q9NUJ1_K185 / isoTOP-ABPP ratio (R) at liganded lysine Q9NUJ1_K185: 50 uM, in vitro; for isoTOP-ABPP reactivity ratio at lysine Q9NUJ1_K185: 231 sol; for isoTOP-ABPP ratio (R) at liganded lysine Q9NUJ1_K185: sol, 231
T4 construct: endogenous in cells; host or cells: MDA-MB-231 lysate
T4 sequence (Q9NUJ1 53-306): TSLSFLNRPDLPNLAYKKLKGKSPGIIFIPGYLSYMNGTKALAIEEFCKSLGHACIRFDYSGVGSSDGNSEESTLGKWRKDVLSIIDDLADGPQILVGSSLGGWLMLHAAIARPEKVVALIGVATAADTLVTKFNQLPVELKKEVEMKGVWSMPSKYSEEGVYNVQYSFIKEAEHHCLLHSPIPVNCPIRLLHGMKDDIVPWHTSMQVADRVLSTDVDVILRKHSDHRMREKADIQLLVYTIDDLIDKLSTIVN
Method: as §1, §2, §3, §4

T2 sequence (P61289 whole entry, one chain of several): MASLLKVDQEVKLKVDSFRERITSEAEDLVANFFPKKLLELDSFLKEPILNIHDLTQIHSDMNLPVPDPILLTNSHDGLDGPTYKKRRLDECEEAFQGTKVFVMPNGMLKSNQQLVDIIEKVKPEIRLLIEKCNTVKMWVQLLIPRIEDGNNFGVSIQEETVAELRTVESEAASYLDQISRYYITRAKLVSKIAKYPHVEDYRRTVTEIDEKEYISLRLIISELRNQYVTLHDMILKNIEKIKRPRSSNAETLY
T1 sequence (P55263 whole entry): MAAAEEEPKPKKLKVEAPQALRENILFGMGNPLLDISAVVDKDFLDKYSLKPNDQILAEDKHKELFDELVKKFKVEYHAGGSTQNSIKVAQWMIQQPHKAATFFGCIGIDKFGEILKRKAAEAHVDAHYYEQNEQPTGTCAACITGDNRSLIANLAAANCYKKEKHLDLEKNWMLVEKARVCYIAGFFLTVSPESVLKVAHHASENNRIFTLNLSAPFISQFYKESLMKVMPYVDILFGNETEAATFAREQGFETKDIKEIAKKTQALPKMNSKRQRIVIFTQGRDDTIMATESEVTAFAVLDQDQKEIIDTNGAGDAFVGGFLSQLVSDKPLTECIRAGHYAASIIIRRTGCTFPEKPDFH

Structure (SMILES) | isoTOP-ABPP reactivity ratio at lysine P55263_K88 (ADK Adenosine kinase) | isoTOP-ABPP reactivity ratio at lysine P61289_K237 [1] | isoTOP-ABPP reactivity ratio at lysine Q9H3P7_K117 [2] | isoTOP-ABPP reactivity ratio at lysine Q9NUJ1_K185 [3] | isoTOP-ABPP ratio (R) at liganded lysine P55263_K88 (ADK Adenosine kinase) | isoTOP-ABPP ratio (R) at liganded lysine P61289_K12 [1] | isoTOP-ABPP ratio (R) at liganded lysine P61289_K237 [1] | isoTOP-ABPP ratio (R) at liganded lysine Q9H3P7_K117 [2] | isoTOP-ABPP ratio (R) at liganded lysine Q9NUJ1_K185 [3] | isoTOP-ABPP reactivity ratio at lysine P61289_K12 [1] | other results
O=C(Oc1ccc([N+](=O)[O-])cc1[N+](=O)[O-])C(c1ccccc1)c1ccccc1 [fragment 30, 2,4-Dinitrophenyl 2,2-diphenylacetate] | 0.8 | 4.3 | 1.7 | 2.4 |  |  |  |  |  |  | 
O=C(ON1C(=O)CCC1=O)c1cc(C(F)(F)F)cc(C(F)(F)F)c1 [fragment 46, 3,5-Bis(trifluoromethyl)benzoic acid NHS ester] |  |  |  |  |  |  |  |  |  |  | isoTOP-ABPP ratio, lysine P55263_K88 (ADK Adenosine kinase; 50 uM_231_sol_in vitro): 0.8; isoTOP-ABPP ratio, lysine P61289_K12 ([1]; 50 uM_231_sol_in vitro): 0.7; isoTOP-ABPP ratio, lysine P61289_K237 ([1]; 50 uM_231_sol_in vitro): 0.9; isoTOP-ABPP ratio, lysine Q9H3P7_K117 ([2]; 50 uM_231_sol_in vitro): 7.7; isoTOP-ABPP ratio, lysine Q9NUJ1_K185 ([3]; 50 uM_231_sol_in vitro): 1.2
O=C(Oc1ccc([N+](=O)[O-])cc1[N+](=O)[O-])c1ccc(Oc2ccccc2)cc1 [fragment 39, 2,4-Dinitrophenyl 4-phenoxybenzoate] |  |  |  |  | 0.9 | 0.9 | 0.9 | 0.9 | 1.0 |  | 
O=C(Oc1ccc([N+](=O)[O-])cc1[N+](=O)[O-])c1ccc(-c2ccccc2)cc1 [fragment 37, 2,4-Dinitrophenyl [1,1′-biphenyl]-4-carboxylate] |  |  |  |  | 0.8 | 0.9 | 1.0 | 0.9 | 1.2 |  | 
COc1cc(CCC(=O)Oc2ccc([N+](=O)[O-])cc2[N+](=O)[O-])cc(OC)c1OC [fragment 33, 2,4-Dinitrophenyl 3-(3,4,5-trimethoxyphenyl)propanoate] | 0.9 | 1.1 | 1.1 | 2.1 |  |  |  |  |  | 2.1 | 
CCn1cc(C(=O)Oc2c(F)c(F)c(F)c(F)c2F)c(=O)c2ccc(C)nc21 [fragment 28, Pentafluorophenyl 1-ethyl-7-methyl-4-oxo-1,4-dihydro-1,8-naphthyridine-3-carboxylate] | 0.8 | 0.6 | 1.1 | 1.2 |  |  |  |  |  | 1.0 | 
